Measurements as given in ChEMBL document CHEMBL3627608, “Crystal structures of human RIP2 kinase catalytic domain complexed with ATP-competitive inhibitors: Foundations for understanding inhibitor selectivity” (Bioorg Med Chem, 2015).

How the values were obtained:
[1] = target: Ephrin type-A receptor 5 (Homo sapiens) (UniProt P54756); experiment: Inhibition of EPHA5 (unknown origin) at 10 uM after 120 mins P33 radiolabeled kinase activity assay
[2] = target: T1, Ephrin type-A receptor 6 (Homo sapiens) (UniProt Q9UF33); experiment: Inhibition of EPHA6 (unknown origin) at 10 uM after 120 mins P33 radiolabeled kinase activity assay
T1 sequence (whole entry): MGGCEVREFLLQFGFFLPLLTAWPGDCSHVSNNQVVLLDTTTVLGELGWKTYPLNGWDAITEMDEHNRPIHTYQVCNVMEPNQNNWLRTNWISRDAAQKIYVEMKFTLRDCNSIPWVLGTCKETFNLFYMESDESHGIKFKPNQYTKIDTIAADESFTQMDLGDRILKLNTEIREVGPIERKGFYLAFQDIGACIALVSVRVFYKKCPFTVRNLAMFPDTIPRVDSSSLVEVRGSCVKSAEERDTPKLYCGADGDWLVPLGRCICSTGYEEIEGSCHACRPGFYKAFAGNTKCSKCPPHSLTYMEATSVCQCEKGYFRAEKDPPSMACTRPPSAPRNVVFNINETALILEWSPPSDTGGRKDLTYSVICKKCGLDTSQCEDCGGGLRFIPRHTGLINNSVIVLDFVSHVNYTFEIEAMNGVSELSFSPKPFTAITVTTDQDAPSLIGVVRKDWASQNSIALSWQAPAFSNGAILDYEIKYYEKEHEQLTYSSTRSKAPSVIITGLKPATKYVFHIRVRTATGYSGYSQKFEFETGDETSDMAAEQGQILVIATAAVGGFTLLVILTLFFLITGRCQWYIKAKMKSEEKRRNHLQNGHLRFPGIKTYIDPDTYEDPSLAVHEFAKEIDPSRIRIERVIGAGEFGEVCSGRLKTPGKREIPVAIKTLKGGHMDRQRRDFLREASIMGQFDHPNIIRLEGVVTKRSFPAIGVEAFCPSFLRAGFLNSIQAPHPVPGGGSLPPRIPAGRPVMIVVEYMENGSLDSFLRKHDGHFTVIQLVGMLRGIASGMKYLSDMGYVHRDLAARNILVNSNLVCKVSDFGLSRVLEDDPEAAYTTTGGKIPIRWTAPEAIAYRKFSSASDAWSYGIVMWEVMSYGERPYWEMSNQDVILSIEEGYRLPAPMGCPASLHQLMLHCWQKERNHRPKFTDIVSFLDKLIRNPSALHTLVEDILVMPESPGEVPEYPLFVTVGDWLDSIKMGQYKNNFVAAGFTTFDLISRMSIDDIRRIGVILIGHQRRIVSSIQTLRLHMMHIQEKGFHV

[3] = target: T2, Protein kinase C iota type (Homo sapiens) (UniProt P41743); experiment: Inhibition of PKCiota (unknown origin) at 10 uM after 120 mins P33 radiolabeled kinase activity assay
T2 sequence (whole entry): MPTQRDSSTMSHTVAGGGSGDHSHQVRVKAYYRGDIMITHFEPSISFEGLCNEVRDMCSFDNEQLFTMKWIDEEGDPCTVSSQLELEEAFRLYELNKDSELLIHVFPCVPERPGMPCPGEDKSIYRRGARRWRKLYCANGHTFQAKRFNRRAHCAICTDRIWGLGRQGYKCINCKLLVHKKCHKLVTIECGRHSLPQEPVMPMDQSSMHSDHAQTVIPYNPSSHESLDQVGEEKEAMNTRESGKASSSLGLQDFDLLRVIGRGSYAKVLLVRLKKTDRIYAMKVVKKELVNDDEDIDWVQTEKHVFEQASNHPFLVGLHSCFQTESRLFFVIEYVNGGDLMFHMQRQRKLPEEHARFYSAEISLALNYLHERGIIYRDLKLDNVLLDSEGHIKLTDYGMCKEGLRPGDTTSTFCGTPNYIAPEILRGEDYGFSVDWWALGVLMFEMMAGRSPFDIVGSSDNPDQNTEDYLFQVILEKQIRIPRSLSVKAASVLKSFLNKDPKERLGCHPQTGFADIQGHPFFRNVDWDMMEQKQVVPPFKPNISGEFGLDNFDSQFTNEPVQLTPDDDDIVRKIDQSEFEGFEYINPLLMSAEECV

[4] = target: Interleukin-1 receptor-associated kinase 1 (Homo sapiens) (UniProt P51617); experiment: Inhibition of IRAK1 (unknown origin) at 10 uM after 120 mins P33 radiolabeled kinase activity assay
Chain of Interleukin-1 receptor-associated kinase 1 (Homo sapiens) (P51617 whole entry, looked up): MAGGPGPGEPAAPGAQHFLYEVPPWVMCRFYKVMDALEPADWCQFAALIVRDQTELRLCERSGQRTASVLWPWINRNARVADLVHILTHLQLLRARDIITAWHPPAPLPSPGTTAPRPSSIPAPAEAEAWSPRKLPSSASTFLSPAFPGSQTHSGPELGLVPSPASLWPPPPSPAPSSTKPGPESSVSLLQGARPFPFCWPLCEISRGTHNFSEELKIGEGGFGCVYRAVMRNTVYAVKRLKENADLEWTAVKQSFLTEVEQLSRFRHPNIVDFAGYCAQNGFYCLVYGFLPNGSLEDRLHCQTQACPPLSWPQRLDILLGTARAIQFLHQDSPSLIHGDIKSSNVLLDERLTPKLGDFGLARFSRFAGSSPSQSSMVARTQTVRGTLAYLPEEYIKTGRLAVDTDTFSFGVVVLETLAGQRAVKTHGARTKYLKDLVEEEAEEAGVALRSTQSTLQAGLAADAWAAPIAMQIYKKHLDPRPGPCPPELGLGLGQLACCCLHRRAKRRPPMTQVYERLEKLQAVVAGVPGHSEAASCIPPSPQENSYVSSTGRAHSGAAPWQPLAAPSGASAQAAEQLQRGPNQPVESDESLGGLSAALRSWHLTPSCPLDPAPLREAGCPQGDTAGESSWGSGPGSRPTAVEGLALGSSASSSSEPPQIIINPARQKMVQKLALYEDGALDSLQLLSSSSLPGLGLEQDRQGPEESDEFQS

[5] = target: Serine/threonine-protein kinase MRCK beta (Homo sapiens) (UniProt Q9Y5S2); experiment: Inhibition of MRCKbeta (unknown origin) at 10 uM after 120 mins P33 radiolabeled kinase activity assay
Chain of Serine/threonine-protein kinase MRCK beta (Homo sapiens) (Q9Y5S2 whole entry): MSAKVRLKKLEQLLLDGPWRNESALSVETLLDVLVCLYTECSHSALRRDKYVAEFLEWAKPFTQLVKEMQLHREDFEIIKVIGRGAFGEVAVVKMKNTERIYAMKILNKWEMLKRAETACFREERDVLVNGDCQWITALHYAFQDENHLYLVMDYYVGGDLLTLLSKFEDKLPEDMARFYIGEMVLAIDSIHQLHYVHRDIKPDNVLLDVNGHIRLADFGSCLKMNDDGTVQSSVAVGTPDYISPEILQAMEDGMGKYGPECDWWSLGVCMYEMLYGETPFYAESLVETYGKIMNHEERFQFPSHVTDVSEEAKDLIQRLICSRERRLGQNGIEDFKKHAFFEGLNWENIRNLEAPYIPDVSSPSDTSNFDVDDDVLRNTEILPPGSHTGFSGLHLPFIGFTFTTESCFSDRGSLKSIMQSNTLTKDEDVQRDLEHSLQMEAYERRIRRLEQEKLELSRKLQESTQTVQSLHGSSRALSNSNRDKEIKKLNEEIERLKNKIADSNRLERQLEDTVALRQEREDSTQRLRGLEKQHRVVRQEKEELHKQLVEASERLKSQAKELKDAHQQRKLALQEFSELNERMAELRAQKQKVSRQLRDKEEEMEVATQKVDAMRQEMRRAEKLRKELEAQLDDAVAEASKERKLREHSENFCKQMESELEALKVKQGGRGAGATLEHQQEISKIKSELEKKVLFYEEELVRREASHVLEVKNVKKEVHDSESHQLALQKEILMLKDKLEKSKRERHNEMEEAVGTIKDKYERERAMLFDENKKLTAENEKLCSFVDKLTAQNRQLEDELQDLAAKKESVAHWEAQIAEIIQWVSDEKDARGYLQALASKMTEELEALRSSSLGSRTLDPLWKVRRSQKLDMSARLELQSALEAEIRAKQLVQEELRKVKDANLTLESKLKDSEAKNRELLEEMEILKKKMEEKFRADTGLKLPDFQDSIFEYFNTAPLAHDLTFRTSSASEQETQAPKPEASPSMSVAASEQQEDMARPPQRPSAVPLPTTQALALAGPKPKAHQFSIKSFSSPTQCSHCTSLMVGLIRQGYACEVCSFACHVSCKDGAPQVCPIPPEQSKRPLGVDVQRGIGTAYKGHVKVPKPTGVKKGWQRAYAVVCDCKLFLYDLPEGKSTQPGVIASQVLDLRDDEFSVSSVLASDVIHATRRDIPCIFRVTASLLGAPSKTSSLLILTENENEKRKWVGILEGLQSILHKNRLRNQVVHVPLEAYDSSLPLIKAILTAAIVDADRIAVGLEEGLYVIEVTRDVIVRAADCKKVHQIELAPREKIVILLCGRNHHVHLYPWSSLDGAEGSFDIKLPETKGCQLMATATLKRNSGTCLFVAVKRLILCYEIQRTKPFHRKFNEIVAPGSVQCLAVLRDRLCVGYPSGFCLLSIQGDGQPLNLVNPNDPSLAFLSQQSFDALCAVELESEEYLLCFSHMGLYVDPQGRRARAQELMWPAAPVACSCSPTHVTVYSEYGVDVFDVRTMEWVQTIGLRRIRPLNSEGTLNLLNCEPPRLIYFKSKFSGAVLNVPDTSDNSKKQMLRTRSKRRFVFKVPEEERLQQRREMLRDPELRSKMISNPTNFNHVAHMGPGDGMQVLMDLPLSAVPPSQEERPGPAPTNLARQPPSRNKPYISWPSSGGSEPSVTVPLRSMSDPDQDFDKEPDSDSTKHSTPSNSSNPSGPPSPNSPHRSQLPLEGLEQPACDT

[6] = target: T3, Tyrosine-protein kinase Mer (Homo sapiens) (UniProt Q12866); experiment: Inhibition of c-MER (unknown origin) at 10 uM after 120 mins P33 radiolabeled kinase activity assay
T3 sequence (whole entry): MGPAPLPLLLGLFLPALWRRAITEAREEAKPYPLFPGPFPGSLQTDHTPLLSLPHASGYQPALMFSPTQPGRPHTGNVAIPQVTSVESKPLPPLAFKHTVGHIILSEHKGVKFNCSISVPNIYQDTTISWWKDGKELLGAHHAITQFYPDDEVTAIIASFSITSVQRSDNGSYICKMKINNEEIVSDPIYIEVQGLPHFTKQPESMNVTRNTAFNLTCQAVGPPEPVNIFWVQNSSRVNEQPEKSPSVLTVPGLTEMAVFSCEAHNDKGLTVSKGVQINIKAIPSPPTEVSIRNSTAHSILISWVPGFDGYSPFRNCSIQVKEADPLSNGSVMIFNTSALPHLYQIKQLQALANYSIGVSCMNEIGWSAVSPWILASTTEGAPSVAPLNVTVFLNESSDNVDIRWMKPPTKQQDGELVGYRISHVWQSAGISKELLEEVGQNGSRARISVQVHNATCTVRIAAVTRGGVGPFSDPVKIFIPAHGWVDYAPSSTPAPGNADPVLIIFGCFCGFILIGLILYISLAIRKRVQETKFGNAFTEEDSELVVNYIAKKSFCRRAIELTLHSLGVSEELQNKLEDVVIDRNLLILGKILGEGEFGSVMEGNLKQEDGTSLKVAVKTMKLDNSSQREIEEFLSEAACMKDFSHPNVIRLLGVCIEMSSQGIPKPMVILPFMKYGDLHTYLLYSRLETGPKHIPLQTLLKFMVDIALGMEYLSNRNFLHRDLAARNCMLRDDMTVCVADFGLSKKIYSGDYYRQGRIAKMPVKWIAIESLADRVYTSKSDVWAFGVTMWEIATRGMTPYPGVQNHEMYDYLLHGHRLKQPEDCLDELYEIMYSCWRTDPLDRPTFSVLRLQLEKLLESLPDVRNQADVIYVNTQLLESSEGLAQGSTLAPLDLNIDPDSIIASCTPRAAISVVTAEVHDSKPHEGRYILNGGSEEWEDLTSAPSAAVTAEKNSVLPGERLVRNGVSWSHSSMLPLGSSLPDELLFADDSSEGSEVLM

Chain of Ephrin type-A receptor 5 (Homo sapiens) (P54756 whole entry): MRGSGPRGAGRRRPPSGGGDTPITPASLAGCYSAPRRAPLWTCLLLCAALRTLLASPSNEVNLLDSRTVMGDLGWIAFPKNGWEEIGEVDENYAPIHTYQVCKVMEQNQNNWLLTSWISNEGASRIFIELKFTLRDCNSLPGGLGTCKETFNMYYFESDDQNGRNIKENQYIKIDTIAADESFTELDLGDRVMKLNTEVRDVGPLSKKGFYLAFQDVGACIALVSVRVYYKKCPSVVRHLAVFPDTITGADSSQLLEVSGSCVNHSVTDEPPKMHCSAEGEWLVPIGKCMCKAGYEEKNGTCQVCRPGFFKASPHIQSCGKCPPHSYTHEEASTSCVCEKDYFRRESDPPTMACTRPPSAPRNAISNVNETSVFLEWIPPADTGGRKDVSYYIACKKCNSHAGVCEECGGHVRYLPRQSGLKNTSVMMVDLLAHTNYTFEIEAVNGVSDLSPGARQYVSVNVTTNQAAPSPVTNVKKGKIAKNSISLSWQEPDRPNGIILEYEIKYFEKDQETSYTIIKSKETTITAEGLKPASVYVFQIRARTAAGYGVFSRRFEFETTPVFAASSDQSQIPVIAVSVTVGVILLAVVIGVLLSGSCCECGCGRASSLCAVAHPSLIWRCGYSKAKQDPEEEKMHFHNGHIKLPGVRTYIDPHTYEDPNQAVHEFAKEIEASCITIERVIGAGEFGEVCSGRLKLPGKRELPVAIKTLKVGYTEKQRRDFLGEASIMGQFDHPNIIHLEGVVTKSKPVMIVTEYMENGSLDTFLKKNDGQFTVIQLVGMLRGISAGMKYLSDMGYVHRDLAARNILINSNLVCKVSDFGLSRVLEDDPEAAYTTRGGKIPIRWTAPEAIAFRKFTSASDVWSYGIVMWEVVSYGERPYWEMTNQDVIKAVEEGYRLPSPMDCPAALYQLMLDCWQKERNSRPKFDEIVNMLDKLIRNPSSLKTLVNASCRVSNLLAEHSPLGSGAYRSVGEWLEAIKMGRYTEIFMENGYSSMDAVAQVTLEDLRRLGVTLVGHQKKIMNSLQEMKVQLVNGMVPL

inhibition [1] [%]	inhibition [2] [%]	inhibition [3] [%]	inhibition [4] [%]	inhibition [5] [%]	inhibition [6] [%]	Structure (SMILES)
58	95.8	9.85	27.6	14.4	98.2	CS(=O)(=O)c1cccc(Nc2nccc(-c3sc(N4CCOCC4)nc3-c3cccc(NS(=O)(=O)c4c(F)cccc4F)c3)n2)c1
20.2	31.7	5.69	5.62	11.1	30.8	COCCNC(=O)c1ccc2c(c1)nc(-c1cnc(-c3ccc(Cl)cc3)[nH]1)n2CCOC
95.5	93.7	4.69	99.1	16.5	77.9	CC(C)(C)c1cc(NC(=O)Nc2ccc(Oc3ccncc3)cc2)no1
